Laboratory results from ChEMBL document CHEMBL1158607, “2' biaryl amides as novel and subtype selective M1 agonists. Part I: Identification, synthesis, and initial SAR” (Bioorg Med Chem Lett, 2010).
Activity calls are given as the source filed them. The rule behind the calls is not given here.

Experiments:
[1] = species on record: Homo sapiens; assay: Selectivity ratio of EC50 for human muscarinic M4 receptor to EC50 for human muscarinic M1 receptor
[2] = target: T1, Muscarinic acetylcholine receptor M1 (Homo sapiens) (UniProt P11229); assay: Intrinsic activity at human muscarinic M1 receptor expressed in CHO cells assessed as effect on acetylcholine-induced intracellular calcium level by FLIPR assay relative to acetylcholine; type: functional, cell-based
T1 sequence (whole entry): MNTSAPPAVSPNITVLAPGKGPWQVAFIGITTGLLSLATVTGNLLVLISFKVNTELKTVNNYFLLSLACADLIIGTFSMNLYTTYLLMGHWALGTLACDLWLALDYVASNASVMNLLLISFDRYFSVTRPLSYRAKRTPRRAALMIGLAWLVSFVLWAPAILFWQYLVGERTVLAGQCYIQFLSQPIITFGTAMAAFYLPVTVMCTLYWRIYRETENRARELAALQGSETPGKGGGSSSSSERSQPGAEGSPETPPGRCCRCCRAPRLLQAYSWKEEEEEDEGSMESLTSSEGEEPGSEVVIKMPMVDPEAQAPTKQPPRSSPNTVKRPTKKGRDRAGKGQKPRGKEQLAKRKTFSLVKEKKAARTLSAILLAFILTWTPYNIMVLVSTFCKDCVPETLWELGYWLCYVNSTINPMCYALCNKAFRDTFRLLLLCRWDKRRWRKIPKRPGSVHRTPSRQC

[3] = target: T2, Muscarinic acetylcholine receptor M1 (Homo sapiens, UniProt P11229); assay: Agonist activity at human muscarinic M1 receptor expressed in CHO cells assessed as effect on acetylcholine-induced intracellular calcium level by FLIPR assay; type: functional, cell-based
T2 sequence (P11229 whole entry): T1 sequence (whole entry)

[4] = target: T3, Muscarinic acetylcholine receptor M3 (Homo sapiens, UniProt P20309); assay: Inhibition of human muscarinic M3 receptor expressed in CHO cells; type: cell-based
Target sequence in this assay (P20309 whole entry): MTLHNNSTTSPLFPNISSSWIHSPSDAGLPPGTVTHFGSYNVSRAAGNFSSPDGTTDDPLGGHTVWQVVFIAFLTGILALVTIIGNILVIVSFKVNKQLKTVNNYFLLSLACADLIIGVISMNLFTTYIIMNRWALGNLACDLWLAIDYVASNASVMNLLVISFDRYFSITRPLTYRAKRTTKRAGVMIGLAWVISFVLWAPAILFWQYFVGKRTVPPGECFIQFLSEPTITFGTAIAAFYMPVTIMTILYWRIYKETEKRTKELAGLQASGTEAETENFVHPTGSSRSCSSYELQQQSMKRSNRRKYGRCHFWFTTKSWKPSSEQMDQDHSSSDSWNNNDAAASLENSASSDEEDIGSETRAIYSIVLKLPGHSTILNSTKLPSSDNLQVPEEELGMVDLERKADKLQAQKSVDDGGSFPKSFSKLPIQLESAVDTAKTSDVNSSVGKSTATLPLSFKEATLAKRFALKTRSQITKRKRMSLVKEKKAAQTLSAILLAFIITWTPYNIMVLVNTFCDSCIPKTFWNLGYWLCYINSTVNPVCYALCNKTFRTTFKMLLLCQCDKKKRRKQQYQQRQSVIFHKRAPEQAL

[5] = species on record: Homo sapiens; assay: Selectivity ratio of EC50 for human muscarinic M5 receptor to EC50 for human muscarinic M1 receptor
[6] = target: T4, Muscarinic acetylcholine receptor M4 (Homo sapiens, UniProt P08173); assay: Inhibition of human muscarinic M4 receptor expressed in CHO cells; type: cell-based
T4 sequence (P08173 whole entry): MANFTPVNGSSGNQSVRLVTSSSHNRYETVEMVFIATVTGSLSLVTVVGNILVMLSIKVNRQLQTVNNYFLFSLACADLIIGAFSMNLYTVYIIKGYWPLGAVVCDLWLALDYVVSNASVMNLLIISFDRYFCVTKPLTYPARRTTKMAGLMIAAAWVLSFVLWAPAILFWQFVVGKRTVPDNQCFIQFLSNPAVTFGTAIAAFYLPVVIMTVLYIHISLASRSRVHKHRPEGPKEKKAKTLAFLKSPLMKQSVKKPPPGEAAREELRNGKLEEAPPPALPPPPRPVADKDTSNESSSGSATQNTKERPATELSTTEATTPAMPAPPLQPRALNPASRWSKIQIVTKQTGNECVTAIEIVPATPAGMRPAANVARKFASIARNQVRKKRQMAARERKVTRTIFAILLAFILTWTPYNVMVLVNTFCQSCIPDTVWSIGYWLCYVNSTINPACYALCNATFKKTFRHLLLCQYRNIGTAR

[7] = target: T5, Muscarinic acetylcholine receptor M2 (Homo sapiens) (UniProt P08172); assay: Agonist activity at human muscarinic M2 receptor expressed in CHO cells assessed as effect on acetylcholine-induced intracellular calcium level by FLIPR assay; type: functional, cell-based
T5 sequence (whole entry): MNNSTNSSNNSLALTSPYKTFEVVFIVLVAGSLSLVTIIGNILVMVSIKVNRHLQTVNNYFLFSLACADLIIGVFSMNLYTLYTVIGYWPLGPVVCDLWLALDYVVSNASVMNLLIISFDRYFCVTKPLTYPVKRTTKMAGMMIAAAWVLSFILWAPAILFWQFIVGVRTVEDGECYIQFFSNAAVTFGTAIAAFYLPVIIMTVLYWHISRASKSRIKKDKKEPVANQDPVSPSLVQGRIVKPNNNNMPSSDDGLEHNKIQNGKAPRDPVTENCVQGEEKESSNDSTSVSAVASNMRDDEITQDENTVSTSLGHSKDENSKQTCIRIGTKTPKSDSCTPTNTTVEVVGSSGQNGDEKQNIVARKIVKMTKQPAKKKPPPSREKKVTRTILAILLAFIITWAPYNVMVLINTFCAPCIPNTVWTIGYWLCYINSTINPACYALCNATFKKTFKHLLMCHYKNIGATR

[8] = target: T6, Muscarinic acetylcholine receptor M5 (Homo sapiens, UniProt P08912); assay: Inhibition of human muscarinic M5 receptor expressed in CHO cells; type: cell-based
T6 sequence (P08912 whole entry): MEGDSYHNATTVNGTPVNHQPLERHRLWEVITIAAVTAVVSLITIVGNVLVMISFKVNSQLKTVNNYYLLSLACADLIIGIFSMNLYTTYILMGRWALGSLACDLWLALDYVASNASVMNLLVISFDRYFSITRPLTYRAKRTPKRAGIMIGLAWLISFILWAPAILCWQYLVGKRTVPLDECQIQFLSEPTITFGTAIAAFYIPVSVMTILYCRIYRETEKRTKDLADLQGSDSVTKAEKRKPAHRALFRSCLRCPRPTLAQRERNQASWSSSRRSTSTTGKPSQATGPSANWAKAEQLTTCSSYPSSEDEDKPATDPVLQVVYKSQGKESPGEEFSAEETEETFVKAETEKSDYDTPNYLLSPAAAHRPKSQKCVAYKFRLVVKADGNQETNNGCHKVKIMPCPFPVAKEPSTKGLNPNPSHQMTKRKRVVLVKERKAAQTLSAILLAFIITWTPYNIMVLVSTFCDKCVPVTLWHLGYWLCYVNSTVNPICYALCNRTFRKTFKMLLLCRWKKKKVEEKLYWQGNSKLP

[9] = target: T3, Muscarinic acetylcholine receptor M3; assay: Agonist activity at human muscarinic M3 receptor expressed in CHO cells assessed as effect on acetylcholine-induced intracellular calcium level by FLIPR assay; type: functional, cell-based
Target sequence in this assay (P20309 whole entry, looked up): as the sequence (P20309 whole entry) above

[10] = target: T7, Muscarinic acetylcholine receptor M2 (Homo sapiens, UniProt P08172); assay: Inhibition of human muscarinic M2 receptor expressed in CHO cells; type: cell-based
T7 sequence (P08172 whole entry): T5 sequence (whole entry)

[11] = target: Muscarinic acetylcholine receptors; M1 & M2 (Homo sapiens) (UniProt P11229+P08172); assay: Selectivity ratio of EC50 for human muscarinic M2 receptor to EC50 for human muscarinic M1 receptor
[12] = target: T8, Muscarinic acetylcholine receptor M5 (Homo sapiens) (UniProt P08912); assay: Agonist activity at human muscarinic M5 receptor expressed in CHO cells assessed as effect on acetylcholine-induced intracellular calcium level by FLIPR assay; type: functional, cell-based
T8 sequence (whole entry): T6 sequence (P08912 whole entry)

[13] = target: Muscarinic acetylcholine receptor M1 and M3 (Homo sapiens) (UniProt P20309+P11229); assay: Selectivity ratio of EC50 for human muscarinic M3 receptor to EC50 for human muscarinic M1 receptor
Sequence of Muscarinic acetylcholine receptor M1 and M3 (Homo sapiens) (P20309 whole entry, looked up, one chain of several): as the sequence (P20309 whole entry) above

[14] = target: T9, Muscarinic acetylcholine receptor M4 (Homo sapiens) (UniProt P08173); assay: Agonist activity at human muscarinic M4 receptor expressed in CHO cells assessed as effect on acetylcholine-induced intracellular calcium level by FLIPR assay; type: functional, cell-based
T9 sequence (whole entry): T4 sequence (P08173 whole entry)

Row | SMILES | Ratio EC50 [1] | Intrinsic activity [2] [%] | EC50 [3] [µM] | IC50 [4] [µM] | Ratio EC50 [5] | IC50 [6] [µM] | Activity [7] | IC50 [8] [µM] | Activity [9] | IC50 [10] [µM] | Ratio EC50 [11] | Activity [12] | Ratio EC50 [13] | Activity [14]
1 | CC1CNCCC1CNC(=O)c1ccccc1-c1cccc(Cl)c1 (centres undefined) | 100 | 99 | 0.02 | 1.26 | 100 | 3.16 | inactive | > 10 | inactive | 3.98 | 100 | inactive | 100 | inactive
2 | Cc1ccc(-c2ccccc2C(=O)NCC2CCNCC2)cc1Cl |  | 91 | 0.0126 | 0.251 |  | 0.398 | inactive | 0.794 | inactive | 0.398 |  | inactive |  | inactive
3 | O=C(NCC1CCNCC1)c1ccccc1-c1cc(Cl)ccc1F | 100 | 111 | 0.01 | 1 | 100 | 1.58 |  | 5.01 |  | 2 | 100 |  | 100 | 
